From patent publication US5066818A, “Photochromic naphthopyran compounds” (PPG Industries, Inc., priority 1990, dated 1991)

Tests used:
[1] = Photochromic response on optical bench of naphthopyrans imbibed into polymer test samples; assay type: physicochemical; conditions: homopolymer of diethylene glycol bis(allyl carbonate); for Δ OD at SATURATION: 150 watt Xenon lamp, about one sun, twenty minutes exposure; for Bleach Rate T1/2: values in sec.
Description: Naphthopyran compounds prepared in the above-described Examples were imbibed by thermal transfer into test samples of a homopolymer of diethylene glycol bis(allyl carbonate) by the following procedure. Each naphthopyran was dissolved into toluene solvent to form a 4% solution of the compound. A piece of No. 4 Whatman filter paper was saturated with the naphthopyran solution and allowed to air dry. The dried filter paper was placed on one side of the polymer test sample, which measured 1/8 inch (0.3 centimeter)×2 inch (5.1 centimeters)×2 inch (5.1 centimeters). A piece of untreated filter paper was placed on the other side of the polymer test sample and the resulting sandwich placed between two plates of flat aluminum metal plates. The entire assembly was then placed in a 155° C. oven for a time sufficient to thermally transfer the naphthopyran into the polymer test sample.
The imbibed test samples were removed from the oven, washed with acetone, and tested for photochromic response rates on an optical bench. The samples were illuminated by a 150 watt Xenon lamp fitted with a copper sulfate bath and neutral density filter at an intensity of about one sun. The optical density at saturation was determined at twenty minutes exposure.

[2] = Photochromic behaviour (coloring, bleaching) stated in words; assay type: physicochemical; conditions: for coloring on exposure to ultraviolet light: near ultraviolet; for bleaching / rate of fade in words: room temperature and above, or ambient temperature

Row | Structure (SMILES) | Δ OD at SATURATION [1] | Bleach Rate T1/2 [1] | coloring on exposure to ultraviolet light [2] | bleaching / rate of fade in words [2]
1 | FC(F)(F)c1ccc(C2(c3ccccc3)C=Cc3ccc4ccccc4c3O2)cc1 (centres unmarked) [Comparative Example 4, 3-phenyl-3(4-trifluoromethylphenyl)-2H-naphtho[1,2-b]pyran] | 1.63 |  |  | 
2 | COc1ccc(C2(c3ccccc3)C=Cc3c(ccc4ccccc34)O2)c(OC)c1 (centres unmarked) [Example 5, 3-phenyl-3-(2,4-dimethoxyphenyl)-3H-naphtho[2,1-b]pyran] | 1.42 | 510 s |  | 
3 | COc1ccc(C2(c3c(F)cccc3F)C=Cc3c(ccc4ccccc34)O2)cc1 (centres unmarked) [Example 6, 3(2,6-difluorophenyl)-3(4-methoxyphenyl)-3H-naphtho[2,1-b]pyran] | 2.23 |  |  | 
4 | C1=CC(c2ccccc2)(c2ccccc2)Oc2c1ccc1ccccc21 [a., 2,2diphenyl-2H naphthol[1,2b]pyran] | 1.37 |  | colors on exposure to near ultraviolet light at room temperature | does not bleach in a reasonable period of time
5 | C1=CC(c2ccccc2)(c2ccccc2)Oc2ccc3ccccc3c21 [compound 1, 3,3-diphenyl-3H-naphtho[2,1-b]pyran] | 0.36 | 45 s | change color on exposure to the near ultraviolet | bleaches too rapidly for use in an ophthalmic lens
6 | FC(F)(F)c1cccc(C2(c3cccc(C(F)(F)F)c3)C=Cc3ccc4ccccc4c3O2)c1 [compound 5, 3,3-di(3-trifluoromethyl)phenyl-2H-naphtho [1,2-b]pyran] | 1.07 |  |  | 

Second part, led by results:

Row | Δ OD at SATURATION [1] | Bleach Rate T1/2 [1] | Structure (SMILES) | coloring on exposure to ultraviolet light [2] | bleaching / rate of fade in words [2]
7 | 0.25 | 35 s | COc1ccc(C2(c3ccccc3)C=Cc3c(ccc4ccccc34)O2)cc1 (centres unmarked) [Comparative Example 2, 3-phenyl-3(4-methoxyphenyl)-3H-naphtho[2,1-b]pyran] |  | 
8 | 1.35 | 510 s | COc1ccc(C2(c3ccc(OC)cc3C)C=Cc3c(ccc4ccccc34)O2)cc1 (centres unmarked) [Example 3, 3(2-methyl-4-methoxyphenyl)-3-(4methoxyphenyl)-3H-naphtho-[2,1-b]pyran] |  | 
9 | 2.40 | 600 s | COc1ccc(C2(c3ccccc3C)C=Cc3c(ccc4ccccc34)O2)cc1 (centres unmarked) [Example 4, 3(2-methylphenyl)-3-(4-methoxyphenyl)-3H-naphtho[2,1-b]pyran] |  | 
10 | 0.21 | 40 s | COc1ccc(C2(c3ccc(C)cc3)C=Cc3c(ccc4ccccc34)O2)cc1 (centres unmarked) [compound 3, 3(4-methylphenyl)-3-(4-methoxyphenyl)-3H-naphtho[2,1-b]pyran] |  | 
